Experiments:
[1] = target: T1, TLR7 (Homo sapiens, UniProt Q9NYK1); test: TLR7 human PBMC cell-based assay (antagonist, GS-986 stimulated cytokine release); settings: human PBMCs; TLR7 agonist GS-986 400 nM, 6 hours; cytokines (IL-6 and IFNα) in supernatant; read-out: TLR-7 EC50
T1 construct: Human peripheral blood mononuclear cells (PBMCs) consist of lymphocytes, monocytes and dendritic cells that express TLR7, TLR8 and TLR9; endogenous in cells; host or cells: cryopreserved human PBMCs from healthy donors
T1 sequence (Q9NYK1 27-1049): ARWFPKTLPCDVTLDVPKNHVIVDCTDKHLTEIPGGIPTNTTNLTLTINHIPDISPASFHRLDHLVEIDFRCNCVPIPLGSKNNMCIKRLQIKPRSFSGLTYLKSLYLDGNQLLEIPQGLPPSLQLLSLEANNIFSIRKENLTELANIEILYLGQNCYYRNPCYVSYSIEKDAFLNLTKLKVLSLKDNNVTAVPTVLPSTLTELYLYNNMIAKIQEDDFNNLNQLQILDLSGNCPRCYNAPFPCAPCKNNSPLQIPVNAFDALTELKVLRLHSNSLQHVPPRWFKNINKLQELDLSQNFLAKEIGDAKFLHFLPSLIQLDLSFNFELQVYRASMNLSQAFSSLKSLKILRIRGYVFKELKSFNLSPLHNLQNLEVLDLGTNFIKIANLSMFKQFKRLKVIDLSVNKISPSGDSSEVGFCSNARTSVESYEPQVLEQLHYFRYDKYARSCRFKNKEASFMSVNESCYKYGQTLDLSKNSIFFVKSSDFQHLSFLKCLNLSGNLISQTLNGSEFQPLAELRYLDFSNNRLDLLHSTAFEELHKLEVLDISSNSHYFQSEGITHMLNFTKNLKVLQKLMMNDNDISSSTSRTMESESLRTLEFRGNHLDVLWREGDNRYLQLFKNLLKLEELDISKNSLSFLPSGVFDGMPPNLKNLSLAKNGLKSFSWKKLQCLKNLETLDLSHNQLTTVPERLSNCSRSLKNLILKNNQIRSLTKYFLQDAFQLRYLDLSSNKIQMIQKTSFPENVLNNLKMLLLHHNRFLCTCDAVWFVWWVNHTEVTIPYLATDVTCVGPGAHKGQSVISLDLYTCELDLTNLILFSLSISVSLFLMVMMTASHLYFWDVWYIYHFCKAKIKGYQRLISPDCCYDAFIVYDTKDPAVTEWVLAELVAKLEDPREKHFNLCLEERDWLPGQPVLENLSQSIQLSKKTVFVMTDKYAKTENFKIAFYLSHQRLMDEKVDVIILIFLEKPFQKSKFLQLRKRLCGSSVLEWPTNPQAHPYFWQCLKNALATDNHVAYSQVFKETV
Procedure, shortened: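 Cryopreserved healthy-donor PBMCs (100,000/well, RPMI-1640 + 10% FBS) pre-incubated 1 h at 37 °C with antagonist (10-point dose response, quadruplicate), then stimulated 6 h with GS-986 at 400 nM final. Supernatant IL-6 and IFNα measured by electrochemiluminescence immunoassay; EC50 from sigmoidal fit.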

[2] = target: T2, TLR8 (Homo sapiens, UniProt Q9NR97); test: TLR8 human PBMC cell-based assay (antagonist, Compound A stimulated cytokine release); settings: human PBMCs; TLR8 agonist Compound A 800 nM, 6 hours; cytokines (TNFa and IL 12p40) in supernatant; read-out: TLR-8 EC50
T2 construct: Human peripheral blood mononuclear cells (PBMCs) consist of lymphocytes, monocytes and dendritic cells that express TLR7, TLR8 and TLR9; endogenous in cells; host or cells: cryopreserved human PBMCs from healthy donors
T2 sequence (Q9NR97 27-1041): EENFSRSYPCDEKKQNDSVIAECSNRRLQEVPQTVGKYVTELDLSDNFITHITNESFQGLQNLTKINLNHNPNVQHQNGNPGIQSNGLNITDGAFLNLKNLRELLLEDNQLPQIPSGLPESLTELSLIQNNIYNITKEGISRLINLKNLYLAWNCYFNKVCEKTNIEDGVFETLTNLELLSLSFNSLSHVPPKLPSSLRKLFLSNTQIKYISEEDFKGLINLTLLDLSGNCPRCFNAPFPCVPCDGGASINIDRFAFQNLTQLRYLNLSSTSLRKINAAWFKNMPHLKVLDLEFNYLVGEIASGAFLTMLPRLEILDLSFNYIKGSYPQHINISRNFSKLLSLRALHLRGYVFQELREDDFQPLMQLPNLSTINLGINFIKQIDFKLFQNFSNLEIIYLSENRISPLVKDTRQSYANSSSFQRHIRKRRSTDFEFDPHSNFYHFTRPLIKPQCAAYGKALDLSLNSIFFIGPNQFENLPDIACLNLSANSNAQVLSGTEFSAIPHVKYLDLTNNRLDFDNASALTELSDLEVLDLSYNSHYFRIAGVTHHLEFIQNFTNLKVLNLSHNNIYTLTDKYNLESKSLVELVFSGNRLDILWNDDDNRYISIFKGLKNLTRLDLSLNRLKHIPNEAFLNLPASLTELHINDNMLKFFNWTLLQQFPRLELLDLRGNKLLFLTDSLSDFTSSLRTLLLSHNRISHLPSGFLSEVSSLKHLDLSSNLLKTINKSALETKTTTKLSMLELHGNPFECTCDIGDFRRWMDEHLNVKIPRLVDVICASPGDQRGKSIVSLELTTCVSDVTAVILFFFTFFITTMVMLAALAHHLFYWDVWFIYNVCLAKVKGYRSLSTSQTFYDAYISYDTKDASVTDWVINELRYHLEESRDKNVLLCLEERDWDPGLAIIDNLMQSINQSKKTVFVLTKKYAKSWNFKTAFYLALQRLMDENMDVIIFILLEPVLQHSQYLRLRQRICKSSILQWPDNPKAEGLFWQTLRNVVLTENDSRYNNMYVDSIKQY
Procedure, shortened: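 Cryopreserved donor PBMCs (100,000/well, RPMI + 10% FBS) were preincubated 1 h with antagonist (10-point dose response, quadruplicate), then stimulated with Compound A (800 nM final) for 6 h at 37 °C. TNFa and IL-12p40 in supernatants were measured by electrochemiluminescence; sigmoidal fits gave EC50.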

SMILES | EC50 [1] [nM] | EC50 [2] [nM]
Cc1cc(-c2[nH]c3cc(C(=O)N(C)C4CCC(N5CC(F)(F)C5)CC4)sc3c2C(C)C)cn2ncnc12 (centres unmarked) [Example 246, N-(4-(3,3-difluoroazetidin-1-yl)cyclohexyl)-6-isopropyl-N-methyl-5-(8-methyl-[1,2,4]triazolo[1,5-a]pyridin-6-yl)-4H-thieno[3,2-b]pyrrole-2-carboxamide] | 53.4 | 191
Cc1cc(-c2[nH]c3cc(C(=O)N(C)C4CCC(N5CC6CCC(C5)O6)CC4)sc3c2C(C)C)cn2ncnc12 (centres unmarked) [Example 248] | 7.6 | 19.5
Cc1cc(-c2[nH]c3cc(C(=O)N(C)C4CCC(N5CCN(CC(F)F)CC5)CC4)sc3c2C(C)C)cn2ncnc12 (centres unmarked) [Example 249] | 3 | 12
Cc1cc(-c2[nH]c3cc(C(=O)N(C)C4CCC(N5CC(F)C5)CC4)sc3c2C(C)C)cn2ncnc12 (centres unmarked) [Example 250] | 6.6 | 11
Cc1cc(-c2[nH]c3cc(C(=O)N(C)C4CCC(N5CC(OC(F)(F)F)C5)CC4)sc3c2C(C)C)cn2ncnc12 (centres unmarked) [Example 251] | 59.6 | 105
Cc1cc(-c2[nH]c3cc(C(=O)N(C)C4CCC(N5CC6(C5)CS(=O)(=O)C6)CC4)sc3c2C(C)C)cn2ncnc12 (centres unmarked) [Example 252] | 9.6 | 11.2
Cc1cc(-c2[nH]c3cc(C(=O)N(C)C4CCC(N5CC6(COC6)C5)CC4)sc3c2C(C)C)cn2ncnc12 (centres unmarked) [Example 253] | 7.5 | 8.5
Cc1cc(-c2[nH]c3cc(C(=O)N(C)C4CCC(N5CCC(F)(F)C5)CC4)sc3c2C(C)C)cn2ncnc12 (centres unmarked) [Example 254] | 34.8 | 136
Cc1cc(-c2[nH]c3cc(C4CCC(NC5CC6CC5O6)CC4)sc3c2C(C)C)cn2ncnc12 (centres unmarked) [Example 261] | 2.2 | 9.7
Cc1c(-c2[nH]c3cc(CN4CCC(C)(O)CC4)sc3c2C(C)C)cn2ncnc2c1C [Example 266] | 2.3 | 1.2
Cc1c(-c2[nH]c3cc(CN4CCC(O)(C(F)(F)F)CC4)sc3c2C(C)C)cn2ncnc2c1C [Example 267] | 37.5 | 4.8

Other lines, results leading:

EC50 [1] [nM] | EC50 [2] [nM] | SMILES
333 | 33.1 | CCc1c(-c2cc(C)c3ncnn3c2)[nH]c2cc(-c3nc4ccc(N5CCNCC5)nc4[nH]3)sc12 [Example 244, 6-ethyl-5-(8-methyl-[1,2,4]triazolo[1,5-a]pyridin-6-yl)-2-(5-(piperazin-1-yl)-311-imidazo[4,5-b]pyridin-2-yl)-4H-thieno[3,2-b]pyrrole]
337 | 66.7 | CCc1c(-c2cc(C)c3ncnn3c2)[nH]c2cc(-c3nc4ccc(N5CCNCC5)cc4[nH]3)sc12 [Example 245]
4.1 | 3.2 | Cc1cc(-c2[nH]c3cc(C4CCN(CCS(C)(=O)=O)CC4)sc3c2C(C)C)cn2ncnc12 [Example 255, 6-isopropyl-5-(8-methyl-[1,2,4]triazolo[1,5-a]pyridin-6-yl)-2-(1-(2-(methylsulfonyl)ethyl)piperidin-4-yl)-4H-thieno[3,2-b]pyrrole]
0.2 | 1.8 | Cc1cc(-c2[nH]c3cc(C4CCC(N5CCC(F)C5)CC4)sc3c2C(C)C)cn2ncnc12 (centres unmarked) [Example 256, 2-(4-(3-fluoropyrrolidin-1-yl)cyclohexyl)-6-isopropyl-5-(8-methyl-[1,2,4]triazolo[1,5-a]pyridin-6-yl)-4H-thieno[3,2-b]pyrrole]
0.4 | 9.6 | Cc1cc(-c2[nH]c3cc(C4CCC(N5CCC(O)C5)CC4)sc3c2C(C)C)cn2ncnc12 (centres unmarked) [Example 257]
2.3 | 11.9 | Cc1cc(-c2[nH]c3cc(C4CCC(N5CCC(OC(F)F)C5)CC4)sc3c2C(C)C)cn2ncnc12 (centres unmarked) [Example 258]
0.3 | 2 | Cc1cc(-c2[nH]c3cc(C4CCC(N5CC6(COC6)C5)CC4)sc3c2C(C)C)cn2ncnc12 (centres unmarked) [Example 260]
0.3 | 6 | Cc1cc(-c2[nH]c3cc(-c4cn(C5CCNCC5)nn4)sc3c2C(C)C)cn2ncnc12 [Example 263, 6-isopropyl-5-(8-methyl-[1,2,4]triazolo[1,5-a]pyridin-6-yl)-2-(1-(piperidin-4-yl)-1H-1,2,3-triazol-4-yl)-4H-thieno[3,2-b]pyrrole]
1.8 | 1.6 | Cc1cc(-c2[nH]c3cc(-c4cn(C5CCN(CCO)CC5)nn4)sc3c2C(C)C)cn2ncnc12 [Example 264, 2-(4-(4-(6-isopropyl-5-(8-methyl-[1,2,4]triazolo[1,5-a]pyridin-6-yl)-4H-thieno[3,2-b]pyrrol-2-yl)-1H-1,2,3-triazol-1-yl)piperidin-1-yl)ethan-1-ol]
1.7 | 8.2 | Cc1cc(-c2[nH]c3cc(CN4CCN(C)CC4)sc3c2C(C)C)cn2ncnc12 [Example 265, 6-isopropyl-5-(8-methyl-[1,2,4]triazolo[1,5-a]pyridin-6-yl)-2-((4-methylpiperazin-1-yl)methyl)-4H-thieno[3,2-b]pyrrole]
26.5 | 14.7 | Cc1cc(-c2[nH]c3cc(C(=O)N(C)C4CCN(CCC(F)(F)F)CC4)sc3c2C(C)C)cn2ncnc12 [Example 269, 6-isopropyl-N-methyl-5-(8-methyl-[1,2,4]triazolo[1,5-a]pyridin-6-yl)-N-[1-(3,3,3-trifluoropropyl)-4-piperidyl]-4H-thieno[3,2-b]pyrrole-2-carboxamide]
8.2 | 3 | Cc1cc(-c2[nH]c3cc(CN4CCC(C)(O)CC4)sc3c2C(C)C)cn2ncnc12 [Example 270, 1-((6-Isopropyl-5-(8-methyl-[1,2,4]triazolo[1,5-a]pyridin-6-yl)-4H-thieno[3,2-b]pyrrol-2-yl)methyl)-4-methylpiperidin-4-ol]
35 | 51.2 | Cc1cc(-c2[nH]c3cc(CN4CC5(C4)CS(=O)(=O)C5)sc3c2C(C)C)cn2ncnc12 [Example 271]
1.8 | 4.9 | Cc1cc(-c2[nH]c3cc(-c4ccc(N5CCN(C)CC5)c(F)c4)sc3c2C(C)C)cn2ncnc12 [Example 272, 2-(3-Fluoro-4-(4-methylpiperazin-1-yl)phenyl)-6-isopropyl-5-(8-methyl-[1,2,4]triazolo[1,5-a]pyridin-6-yl)-4F1-thieno[3,2-b]pyrrole]
